Measurements: US11236041B2, “Type-G crystal form of fenolamine, preparation method, composition and use thereof” (INSTITUTE OF MATARIA MEDICA, CHINESE ACADEMY OF MEDICAL …, priority 2017, dated 2022)

Assay: Stability of solid of type-G fenolamine crystal form (influencing factor experiment)
Assay type: physicochemical
Conditions: open watch glass; 60° C., 40° C., and 25° C., relative humidity 90%±5%, illumination 4500 lx±500 lx; 10 days, sampled Days 0, 5, 10; powder X-ray diffraction and gas chromatography
Description: Type-G fenolamine crystal form samples were placed in open clean watch glasses, and kept under conditions of a high temperature of 60° C., a high temperature of 40° C., and 25° C., a relative humidity of 90%±5%, and illumination at 4500 lx±500 lx for 10 days, and samples were taken on Days 0, 5, and 10. Powder X-ray diffraction (with a resultant pattern consistent to that in FIG. 1) and gas chromatography means were used for analysis. […] All of the products from Example 1 were subjected to this test and achieved the same effect.

stability of the crystal form under conditions of high temperature, high humidity and light illumination: stable
Structure (SMILES): COc1ccc(OC)c(/C(=C\c2ccc(O)c(OC)c2)C(=O)NCCc2ccc(O)cc2)c1 [type-G fenolamine crystal form, trans-2-(2,5-dimethoxyphenyl)-3-(4-hydroxy-3-methoxyphenyl)-N-(4-hydroxyphenylethyl)-acrylamide]
